Measurements reported in ChEMBL document CHEMBL1201862, “PubChem BioAssay data set” (2004).
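Results reflect a 48-hour exposure of cells in 96-well plates to compound at five concentrations. Abbreviation: GI50, concentration required for 50% inhibition of growth.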 Calls of active or inactive are those of the source. No stated cut-off is given here; in the data, active = GI50 up to about 1.1 µM and inactive = higher.

Key:
Assay in all cases: NCI anticancer screen, dose series, 48 h
786-0 = system: 786-0
SK-MEL-2 = system: SK-MEL-2
DMS-114 = system: DMS-114
SN12C = system: SN12C
LXFL 529 = system: LXFL 529
SNB-78 = system: SNB-78
DLD-1 = system: DLD-1
SF-268 = system: SF-268
OVCAR-4 = system: OVCAR-4
UO-31 = system: UO-31
UACC-257 = system: UACC-257
HCC 2998 = system: HCC 2998
A549 = system: A549
OVCAR-8 = system: OVCAR-8
CAKI-1 = system: CAKI-1
SK-MEL-28 = system: SK-MEL-28
SNB-19 = system: SNB-19
NCI-H522 = system: NCI-H522
SW-620 = system: SW-620
NCI-H460 = system: NCI-H460
HOP-18 = system: HOP-18
NCI-H226 = system: NCI-H226
LOX IMVI = system: LOX IMVI
HOP-62 = system: HOP-62
M14 = system: M14
SNB-75 = system: SNB-75
HCT-116 = system: HCT-116
M19-MEL = system: M19-MEL
SR = system: SR
HOP-92 = system: HOP-92
SF-539 = system: SF-539
RXF 393 = system: RXF 393
Malme-3M = system: Malme-3M
U-251 = system: U-251
COLO 205 = system: COLO 205
HT-29 = system: HT-29
TK-10 = system: TK-10
SF-295 = system: SF-295
HL-60 = system: HL-60
EKVX = system: EKVX
KM12 = system: KM12
DMS-273 = system: DMS-273
KM-20L2 = system: KM-20L2
NCI-H23 = system: NCI-H23
OVCAR-5 = system: OVCAR-5
OVCAR-3 = system: OVCAR-3
HCT-15 = system: HCT-15
CCRF-CEM = system: CCRF-CEM
A498 = system: A498
ACHN = system: ACHN
SK-OV-3 = system: SK-OV-3
MOLT-4 = system: MOLT-4
IGROV-1 = system: IGROV-1
UACC-62 = system: UACC-62
SK-MEL-5 = system: SK-MEL-5
K562 = system: K562
RPMI-8226 = system: RPMI-8226

N=C(c1ccccc1)N1CCCCC1
GI50 (786-0): > 100 µM (inactive) | GI50 (SK-MEL-2): > 100 µM (inactive) | GI50 (DMS-114): > 100 µM (inactive) | GI50 (SN12C): > 100 µM (inactive) | GI50 (LXFL 529): > 100 µM (inactive) | GI50 (SNB-78): > 100 µM (inactive) | GI50 (DLD-1): > 100 µM (inactive) | GI50 (SF-268): > 100 µM (inactive) | GI50 (OVCAR-4): > 100 µM (inactive) | GI50 (UO-31): > 100 µM (inactive) | GI50 (UACC-257): > 100 µM (inactive) | GI50 (HCC 2998): > 100 µM (inactive) | GI50 (A549): > 100 µM (inactive) | GI50 (OVCAR-8): > 100 µM (inactive) | GI50 (CAKI-1): > 100 µM (inactive) | GI50 (SK-MEL-28): > 100 µM (inactive) | GI50 (SNB-19): > 100 µM (inactive) | GI50 (NCI-H522): > 100 µM (inactive) | GI50 (SW-620): > 100 µM (inactive) | GI50 (NCI-H460): > 100 µM (inactive) | GI50 (HOP-18): > 100 µM (inactive) | GI50 (NCI-H226): > 100 µM (inactive) | GI50 (LOX IMVI): > 100 µM (inactive) | GI50 (HOP-62): > 100 µM (inactive) | GI50 (M14): > 100 µM (inactive) | GI50 (SNB-75): > 100 µM (inactive) | GI50 (HCT-116): > 100 µM (inactive) | GI50 (M19-MEL): > 100 µM (inactive) | GI50 (SR): > 100 µM (inactive) | GI50 (HOP-92): < 0.01 µM (active) | GI50 (SF-539): > 100 µM (inactive) | GI50 (RXF 393): > 100 µM (inactive) | GI50 (Malme-3M): 49 µM (inactive) | GI50 (U-251): > 100 µM (inactive) | GI50 (COLO 205): > 100 µM (inactive) | GI50 (HT-29): > 100 µM (inactive) | GI50 (TK-10): > 100 µM (inactive) | GI50 (SF-295): > 100 µM (inactive) | GI50 (HL-60): > 100 µM (inactive) | GI50 (EKVX): > 100 µM (inactive) | GI50 (KM12): > 100 µM (inactive) | GI50 (DMS-273): > 100 µM (inactive) | GI50 (KM-20L2): > 100 µM (inactive) | GI50 (NCI-H23): > 100 µM (inactive) | GI50 (OVCAR-5): > 100 µM (inactive)

O=C1[C@H]2ON(c3ccccc3)C(c3ccccc3Cl)[C@H]2C(=O)N1c1ccc(Cc2ccc(N3C(=O)[C@@H]4ON(c5ccccc5)C(c5ccccc5Cl)[C@@H]4C3=O)cc2)cc1 (stereo not given in full)
GI50 (OVCAR-3): > 100 µM (inactive) | GI50 (HCT-15): > 100 µM | GI50 (CCRF-CEM): > 100 µM (inactive) | GI50 (786-0): > 100 µM (inactive) | GI50 (SK-MEL-2): > 100 µM (inactive) | GI50 (DMS-114): > 100 µM (inactive) | GI50 (SN12C): > 100 µM (inactive) | GI50 (LXFL 529): > 100 µM (inactive) | GI50 (SNB-78): > 100 µM (inactive) | GI50 (DLD-1): > 100 µM (inactive) | GI50 (SF-268): > 100 µM (inactive) | GI50 (A498): > 100 µM (inactive) | GI50 (OVCAR-4): > 100 µM (inactive) | GI50 (UO-31): > 100 µM (inactive) | GI50 (UACC-257): > 100 µM (inactive) | GI50 (HCC 2998): > 100 µM (inactive) | GI50 (ACHN): > 100 µM (inactive) | GI50 (A549): > 100 µM (inactive) | GI50 (OVCAR-8): > 100 µM (inactive) | GI50 (CAKI-1): > 100 µM (inactive) | GI50 (SK-MEL-28): > 100 µM (inactive) | GI50 (SNB-19): > 100 µM (inactive) | GI50 (NCI-H522): > 100 µM (inactive) | GI50 (SK-OV-3): > 100 µM (inactive) | GI50 (SW-620): > 100 µM (inactive) | GI50 (MOLT-4): > 100 µM (inactive) | GI50 (NCI-H460): > 100 µM (inactive) | GI50 (HOP-18): > 100 µM (inactive) | GI50 (NCI-H226): > 100 µM (inactive) | GI50 (LOX IMVI): > 100 µM (inactive) | GI50 (IGROV-1): > 100 µM (inactive) | GI50 (HOP-62): > 100 µM (inactive) | GI50 (M14): 21.7 µM (inactive) | GI50 (SNB-75): > 100 µM (inactive) | GI50 (HCT-116): > 100 µM (inactive) | GI50 (M19-MEL): > 100 µM (inactive) | GI50 (UACC-62): > 100 µM (inactive) | GI50 (SR): > 100 µM (inactive) | GI50 (HOP-92): 71 µM (inactive) | GI50 (SF-539): > 100 µM (inactive) | GI50 (SK-MEL-5): 71.3 µM (inactive) | GI50 (Malme-3M): > 100 µM (inactive) | GI50 (U-251): > 100 µM (inactive) | GI50 (COLO 205): > 100 µM (inactive) | GI50 (HT-29): > 100 µM (inactive) | GI50 (K562): > 100 µM (inactive) | GI50 (TK-10): > 100 µM (inactive) | GI50 (SF-295): > 100 µM (inactive) | GI50 (HL-60): > 100 µM (inactive) | GI50 (EKVX): > 100 µM (inactive) | GI50 (KM12): > 100 µM (inactive) | GI50 (DMS-273): > 100 µM (inactive) | GI50 (KM-20L2): > 100 µM (inactive) | GI50 (RPMI-8226): > 100 µM (inactive) | GI50 (NCI-H23): > 100 µM (inactive) | GI50 (OVCAR-5): > 100 µM (inactive)

CCCCCCCCC(=O)N(C)C1C2CN3CCC(O2)C13 (stereo not given)
GI50 (OVCAR-3): > 100 µM (inactive) | GI50 (HCT-15): > 100 µM | GI50 (CCRF-CEM): > 100 µM (inactive) | GI50 (786-0): > 100 µM (inactive) | GI50 (SK-MEL-2): > 100 µM (inactive) | GI50 (DMS-114): > 100 µM (inactive) | GI50 (SN12C): > 100 µM (inactive) | GI50 (LXFL 529): > 100 µM (inactive) | GI50 (SNB-78): > 100 µM (inactive) | GI50 (DLD-1): > 100 µM (inactive) | GI50 (SF-268): > 100 µM (inactive) | GI50 (A498): > 100 µM (inactive) | GI50 (OVCAR-4): > 100 µM (inactive) | GI50 (UO-31): > 100 µM (inactive) | GI50 (UACC-257): > 100 µM (inactive) | GI50 (HCC 2998): > 100 µM (inactive) | GI50 (ACHN): > 100 µM (inactive) | GI50 (A549): > 100 µM (inactive) | GI50 (CAKI-1): 48.9 µM (inactive) | GI50 (SK-MEL-28): > 100 µM (inactive) | GI50 (SNB-19): > 100 µM (inactive) | GI50 (NCI-H522): > 100 µM (inactive) | GI50 (SK-OV-3): > 100 µM (inactive) | GI50 (SW-620): > 100 µM (inactive) | GI50 (MOLT-4): > 100 µM (inactive) | GI50 (NCI-H460): > 100 µM (inactive) | GI50 (HOP-18): > 100 µM (inactive) | GI50 (NCI-H226): > 100 µM (inactive) | GI50 (LOX IMVI): > 100 µM (inactive) | GI50 (IGROV-1): > 100 µM (inactive) | GI50 (HOP-62): > 100 µM (inactive) | GI50 (M14): > 100 µM (inactive) | GI50 (SNB-75): 75.7 µM (inactive) | GI50 (HCT-116): > 100 µM (inactive) | GI50 (M19-MEL): > 100 µM (inactive) | GI50 (UACC-62): > 100 µM (inactive) | GI50 (SF-539): > 100 µM (inactive) | GI50 (RXF 393): > 100 µM (inactive) | GI50 (SK-MEL-5): > 100 µM (inactive) | GI50 (Malme-3M): > 100 µM (inactive) | GI50 (U-251): > 100 µM (inactive) | GI50 (COLO 205): > 100 µM (inactive) | GI50 (HT-29): > 100 µM (inactive) | GI50 (K562): > 100 µM (inactive) | GI50 (TK-10): > 100 µM (inactive) | GI50 (SF-295): > 100 µM (inactive) | GI50 (HL-60): > 100 µM (inactive) | GI50 (EKVX): > 100 µM (inactive) | GI50 (KM12): > 100 µM (inactive) | GI50 (DMS-273): > 100 µM (inactive) | GI50 (KM-20L2): > 100 µM (inactive) | GI50 (RPMI-8226): > 100 µM (inactive) | GI50 (NCI-H23): > 100 µM (inactive) | GI50 (OVCAR-5): > 100 µM (inactive)
